From ChEMBL document CHEMBL3763135, “Synthesis and evaluation of thiophene-based guanylhydrazones (iminoguanidines) efficient against panel of voriconazole-resistant fungal isolates” (Bioorg Med Chem, 2016)
In brackets after ≈: the same amount, converted by molar mass. Activity calls are given as the source filed them. The rule behind the calls is not given here.

Columns and labels:
Candida albicans [1] = assay: Antifungal activity against Candida albicans ATCC 10231 by broth dilution method; assay type: functional
Candida albicans [2] = assay: Antifungal activity against Candida albicans CA5 by broth dilution method; assay type: functional
Pichia kudriavzevii [3] = assay: Antifungal activity against Candida krusei ATCC 34135 by broth dilution method; assay type: functional
Candida parapsilosis [4] = assay: Antifungal activity against Candida parapsilosis C27 by broth dilution method; assay type: functional; details: Lodderomyces parapsilosis
Aspergillus fumigatus = assay: Antifungal activity against Aspergillus fumigatus ATCC 13073 by broth dilution method; assay type: functional
Fusarium oxysporum = assay: Antifungal activity against Fusarium oxysporum AB18 by broth dilution method; assay type: functional
Microsporum canis = assay: Antifungal activity against Microsporum canis DMT2 by broth dilution method; assay type: functional
[5] = test system: Trichophyton mentagrophytes; assay: Antifungal activity against Trichophyton mentagrophytes DMT4 by broth dilution method; assay type: functional
MRC5 = assay: Cytotoxicity against human MRC5 cells after 48 hrs by MTT assay; assay type: cell-based; details: MRC5, 48 h
[6] = Hemolytic effect in sheep RBC assessed as release of hemoglobin at MIC after 1 hr; assay type: ADME, cell-based, Ovis aries, Erythrocyte; details: sheep red blood cells, read-out: Activity
[7] = Hemolytic effect in sheep RBC assessed as release of hemoglobin at cytotoxic IC50 after 1 hr; assay type: cell-based, Ovis aries, Erythrocyte; details: sheep red blood cells, read-out: Activity
Candida albicans [8] = assay: Induction of DNA intercalation with Candida albicans genomic DNA at 25 ug/ml after 12 hrs by ethidium bromide staining based gel electrophoresis method
Candida albicans [9] = assay: Antibiofilm activity against Candida albicans assessed as inhibition of Spider medium-induced hyphae formation at sub-MIC after 24 hrs by propidium iodide and FITC-conjugated concanavaline A staining based fluorescence microscopy; assay type: functional, organism-based
Candida albicans [10] = assay: Antibiofilm activity against Candida albicans ATCC 10231 assessed as disruption of preformed biofilm after 24 hrs by concanavalin A-FITC-staining based fluorescence microscopic analysis; assay type: functional
Pichia kudriavzevii [11] = assay: Antibiofilm activity against Pichia kudriavzevii ATCC 34135 assessed as disruption of preformed biofilm after 24 hrs by concanavalin A-FITC-staining based fluorescence microscopic analysis; assay type: functional
Candida parapsilosis [12] = assay: Antibiofilm activity against Candida parapsilosis C27 assessed as disruption of preformed biofilm after 24 hrs by concanavalin A-FITC-staining based fluorescence microscopic analysis; assay type: functional
[13] = Induction of membrane damage in PC/PS liposome assessed as calcein release at MIC after 30 mins by fluorescence-based liposome leakage assay; assay type: functional

Row | Molecule | MIC (Candida albicans [1]) | MIC (Candida albicans [2]) | MIC (Pichia kudriavzevii [3]) | MIC (Candida parapsilosis [4]) | MIC (Aspergillus fumigatus) | MIC (Fusarium oxysporum) | MIC (Microsporum canis) | MIC [5] | IC50 (MRC5) | hemolysis at 1 h [6] | hemolysis at 1 h [7] | Activity (Candida albicans [8]) | Activity (Candida albicans [9]) | MBEC (Candida albicans [10]) | MBEC (Pichia kudriavzevii [11]) | MBEC (Candida parapsilosis [12]) | Activity [13]
1 | O=Cc1ccc(-c2ccccc2)s1 | 250 µg/mL (≈ 1330 µM) | 250 µg/mL (≈ 1330 µM) | > 250 µg/mL | > 250 µg/mL | 125 µg/mL (≈ 664 µM) | 250 µg/mL (≈ 1330 µM) | 250 µg/mL (≈ 1330 µM) | 250 µg/mL (≈ 1330 µM) | 50 µg/mL (≈ 266 µM) | ≤ 10% | ≤ 10% | inactive | Active | >1000 µg/mL | >1000 µg/mL | >1000 µg/mL | 
2 | NYSTATIN |  |  |  |  |  |  |  |  |  |  |  |  |  |  |  |  | 21%
3 | Cl.N=C(N)N/N=C/c1ccc(-c2ccccc2)s1 | 1.95 µg/mL | 1.95 µg/mL | 6.25 µg/mL | 6.25 µg/mL | 25 µg/mL | 62.5 µg/mL | 1.56 µg/mL | 3.12 µg/mL | 5 µg/mL | ≤ 10% | ≤ 10% | Active | Active | 1000 µg/mL | >1000 µg/mL | >1000 µg/mL | 
4 | Cl.N=C(N)N/N=C/c1ccc(-c2ccccc2)o1 | 7.8 µg/mL | 15.6 µg/mL | 50 µg/mL | 50 µg/mL | 125 µg/mL | 125 µg/mL | 1.56 µg/mL | 6.25 µg/mL | 20 µg/mL | ≤ 10% | ≤ 10% | Active | Active | 500 µg/mL | 500 µg/mL | 1000 µg/mL | 
5 | COc1ccc(-c2ccc(/C=N/NC(=N)N)s2)cc1.Cl | 7.8 µg/mL | 3.9 µg/mL | 6.25 µg/mL | 6.25 µg/mL | 25 µg/mL | > 250 µg/mL | 0.97 µg/mL | 3.12 µg/mL | 5 µg/mL | ≤ 10% | ≤ 10% | Active | Active | 500 µg/mL | 1000 µg/mL | 1000 µg/mL | 
6 | Cl.N=C(N)N/N=C/c1ccc(-c2ccc(F)cc2)s1 | 3.9 µg/mL | 1.95 µg/mL | 6.25 µg/mL | 6.25 µg/mL | 25 µg/mL | > 250 µg/mL | 0.97 µg/mL | 1.56 µg/mL | 4 µg/mL | ≤ 10% | ≤ 10% | Active | Active | >1000 µg/mL | >1000 µg/mL | >1000 µg/mL | 
7 | Cl.N#Cc1ccc(-c2ccc(/C=N/NC(=N)N)s2)cc1 | 3.9 µg/mL | 7.8 µg/mL | 25 µg/mL | 12.5 µg/mL | 25 µg/mL | > 250 µg/mL | 0.97 µg/mL | 6.25 µg/mL | 5 µg/mL | ≤ 10% | ≤ 10% | Active | Active | 250 µg/mL | >1000 µg/mL | 1000 µg/mL | 
